Experimental data as given in ChEMBL document CHEMBL1201862, “PubChem BioAssay data set” (2004).
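Values below derive from 48-hour exposures of cells grown in 96-well plates, with endpoints linearly interpolated between the two concentrations bracketing the appropriate inhibition level. GI50 is the concentration that inhibits growth by half.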 Activity calls are given as the source filed them. No stated cut-off is given here; in the data, active = GI50 up to about 1.1 µM and inactive = higher.

Experiments:
Experiment in all cases: NCI-60 cell line screen, 48 h
OVCAR-3 = tested on: OVCAR-3
MDA-MB-231 = tested on: MDA-MB-231
TK-10 = tested on: TK-10
UO-31 = tested on: UO-31
HCC 2998 = tested on: HCC 2998
HL-60 = tested on: HL-60
HT-29 = tested on: HT-29
UACC-62 = tested on: UACC-62
SF-295 = tested on: SF-295
OVCAR-4 = tested on: OVCAR-4
A549 = tested on: A549
SNB-75 = tested on: SNB-75
BT-549 = tested on: BT-549
SK-MEL-5 = tested on: SK-MEL-5
Hs-578T = tested on: Hs-578T
COLO 205 = tested on: COLO 205
HOP-92 = tested on: HOP-92
MDA-MB-435 = tested on: MDA-MB-435
MDA-N = tested on: MDA-N
HCT-116 = tested on: HCT-116

Measured: GI50

CCOC(=O)C(NC(=O)CC)(Nc1ccccc1F)C(F)(F)F (stereo not given)
inactive: OVCAR-3 > 100 µM | MDA-MB-231 > 100 µM | TK-10 > 100 µM | UO-31 > 100 µM | HCC 2998 > 100 µM | HL-60 > 100 µM | HT-29 > 100 µM | UACC-62 42.2 µM | SF-295 > 100 µM | OVCAR-4 > 100 µM | A549 > 100 µM | SNB-75 > 100 µM | BT-549 > 100 µM | SK-MEL-5 68.2 µM | Hs-578T > 100 µM | COLO 205 > 100 µM | HOP-92 > 100 µM | MDA-MB-435 > 100 µM | MDA-N > 100 µM | HCT-116 > 100 µM
